The text below walks through data of patent US6982330B2, “Carbazole based compound, coloring material, colored high molecular organic material and electroluminescent material” (Dai Nippon Printing Co., LTD, priority 2002, dated 2006).

Data set [1] can be described thus: Suppressibility of crystallization (film formation ability) of spin-coated layer on glass plate. Particulars: dried at ambient temperature 30 minutes. It is filed as physicochemical. On the procedure: A toluene solution containing 2% by weight of the carbazole based compound of the formula (4) synthesized in Example 1 was prepared. Also, the other toluene solution containing 2% by weight of the same carbazole based compound and 2% by weight of an acrylic binder resin was prepared.
For the comparative examples, the other toluene solution containing 2% by weight of the carbazole (available from Sigma Aldrich Co,.) and the still other toluene solution containing 2% by weight of the carbazole and 2% by weight of the acrylic binder resin were prepared.
2 ml of the each toluene solution was dropped on a non-alkaline glass plate with 5 cm-square shape, and carried out a spin coating at 1,000 rotation per minute for about 2 seconds. Thereafter, it was dried at ambient temperature for 30 minutes, and then a surface of the coating layer was observed and evaluation was carried out regarding suitablility of coating and film-formation process and suppressibility of crystallizing.

Data set [2] can be described thus: Solubility to solvent (toluene or xylene, 2% by weight, 50° C.). It is filed as physicochemical. Conditions: added so as to make concentration 2% by weight, stirred at 50° C. for one hour. On the procedure:
The carbazole based compound of the formula (4) synthesized in Example 1 was added in the toluene or xylene so as to make concentration at 2% by weight, and then stirred in a thermal condition at 50° C. for one hour.

Consider `c1ccc2c(c1)[nH]c1ccccc12` [carbazole], for which the “crystallization of coating layer (visual observation)” value in data set [1] (toluene solution containing 2% by weight of compound alone) is on record as “crystallized to an extent that findable by visual observation”; in data set [1] (toluene solution containing 2% by weight of compound and 2% by weight of acrylic binder resin), “crystallized to an extent that findable by visual observation”.
With `c1cc2cccc3c4cccc5cccc(c(c1)c23)c54` [perylene], the “solubility in toluene or xylene” value in data set [2] was “solubility was insufficient”.
